Measured values as given in patent publication US10100284B2, “Method for inducing differentiation of pluripotent stem cells into endodermal cells” (TOAGOSEI CO., LTD., priority 2013, dated 2018).
Where no end group is shown, it is not given here.

Tested on: iPS cells (clone name: 201B2 or 201B7)
Assay: AFP dot blotting of iPS cell culture supernatant
Assay type: cell-based, human
Settings: peptide concentration 6.0 μM; 8th to 20th day of culture in the presence of the peptide; FIG. 5
Procedure: The stem cell differentiation-inducing activities of the differentiation-inducing synthetic peptides (Samples 2-7) obtained in Example 1 above were evaluated by measuring changes over time in AFP expression levels (typically, extracellular excretion levels). AFP is a differentiation marker protein that is known to be in expressed in cells that have differentiated into liver precursor cells in particular of the endodermal cells. iPS cells that had been cultured and passaged in vitro were used as the test cells. The details of the evaluation test are as follows.
As in Example 3, the peptides of Samples 2 through 7 were added to a peptide concentration of 6.0 μM to added to medium containing cultured iPS cells (clone name: 201B2 or 201B7), and the cells were cultured (Sample Groups 2 through 7). A peptide free-group (comparative example) using cells cultured under the same conditions as in Sample groups 2 through 7 without the addition of a peptide was also established as a control group. […]
After completion of the antigen-antibody reaction with the secondary antibody, Lumina Crescendo Western HRP Substrate (Merck Millipore Corp.) was dripped on the nitrocellulose membrane to react the substrate with the HRP-labeled antibody (secondary antibody), and the target protein (AFP) was detected with a LAS-3000 luminescent image analyzer (Fuji Film).

Substance: RLLLLLLVGLTAPALAKKRTLRKNDRKKR-COOH (RLLLLLLVGLTAPALAKKRTLRKNDRKKR-OH) [Sample 4]
- amount of AFP in the culture supernatant in comparison with peptide-free group with the same culture time: particularly dramatic
